Assay results: US20120323009A1, “PRODUCTION METHOD OF REDUCED PYRROLOQUINOLINE QUINONE” (MITSUBISHI GAS CHEMICAL COMPANY, INC., priority 2010, published 2012)

Assays:
[1] = Storage test of reduced PQQ (oxidation to oxidized PQQ); assay type: physicochemical
Experimental: In Examples and Comparative Examples, the UV measurements were performed on a HITACHI U-2000 Spectrophotometer.
In 500 g of water, […] of pyrroloquinoline quinone disodium was dissolved to a concentration of 0.01 mol/L. In 100 g of water, 3.51 g of L-ascorbic acid was dissolved to a concentration of 0.2 mol/L.
20 g of the pyrroloquinoline quinone disodium solution mentioned above having a concentration of 0.01 mol/L (pH 3.5) was mixed with 20 g of an L-ascorbic acid solution having a concentration of 0.2 mol/L at room temperature. The molar ratio of L-ascorbic acid is 20 with respect to pyrroloquinoline quinone. The pH of the solution was 2 as measured with a pH test strip. The mixed solution was allowed to react at room temperature overnight (pH 2). After the reaction, a solid of the reduced form was precipitated. Under this condition, it is believed that at least 15-fold moles of L-ascorbic acid is present, even allowing for the amounts consumed in the reduction reaction and in air oxidization.
The solid of the reduced form obtained in Example 6 was separated through centrifugation. The supernatant was removed, and the solid was washed with water. This process removed L-ascorbic acid. An aqueous sodium hydroxide solution was added thereto to adjust the value of pH to 7. All the reduced form was converted to the oxidized form in 30 minutes.
1 g of a pyrroloquinoline quinone disodium solution having a concentration of 0.01 mol/L (pH 3.5) was mixed with 1 g of an L-ascorbic acid solution having a concentration of 0.014 mol/L. When 1 g of this mixed solution was transferred to a 15-ml container and brought into contact with air, the solution included 14% of oxidized PQQ (pH 3). After this oxidized PQQ-containing reduced PQQ was left at 30° C. for one week, 18% of oxidized PQQ was included.

[2] = Non-patent document 3; cited from earlier work

time in which all the reduced form was converted to the oxidized form ([1]; Comparative Example 3: solid washed with water, L-ascorbic acid removed, pH adjusted to 7 with aqueous sodium hydroxide): 30 min
state of the reduced form after storage ([1]; Example 7: aqueous reaction solution, pH 2, at least 15-fold moles of L-ascorbic acid present, stored at room temperature for one week): maintained in the reduced state
oxidized PQQ included ([1]; Example 8: 0.01 mol/L PQQ disodium + 0.014 mol/L L-ascorbic acid mixed solution, pH 3, brought into contact with air, before storage): 14%
oxidized PQQ included ([1]; Example 8: same solution after being left at 30° C. for one week): 18%
SMILES: O=C(O)c1cc(C(=O)O)c2c(n1)c(O)c(O)c1cc(C(=O)O)[nH]c12 [reduced PQQ, reduced pyrroloquinoline quinone]
antioxidative activity compared with ascorbic acid [2]: greater antioxidative activity than that exhibited by ascorbic acid
antioxidative activity compared with conventional PQQ [2]: extremely higher antioxidative activity than that exhibited by the conventional PQQ
